Some results are limits rather than exact numbers.

The text below walks through data of patent publication US20240025891A1 (Celgene Corporation, priority 2020, published 2024).

The assay relates to Onchocerca gutturosa adult male worms. Kind of assay: Onchocerciasis in vitro screening model Onchocerca gutturosa (worm motility score and MTT/formazan colorimetry). Particulars: Onchocerca gutturosa, read-out: O. gutt Act class.
Experimental: Onchocerciasis: In Vitro Screening Model Onchocerca gutturosa
Parasite and cell cultures. Onchocerca gutturosa adult male worms were obtained by dissection from the nuchal ligament connective tissues of naturally infected cattle, from Gambia, W Africa.
The worms were maintained for at least 24 h in culture before use in Eagles Minimum Essential Medium with Earl's Salts (Gibco, UK)+10% heat inactivated new born calf serum (Gibco, UK)+antibiotic cover of 200 units/ml penicillin, 200 μg/ml streptomycin and 0.5 μg/ml amphotericin B (Sigma, UK). Only normally active specimens were used in the test. All cultures and assays were conducted at 37° C. under an atmosphere of 5% CO2 in air.
Drug sensitivity assays. Compound stock solutions were prepared in 100% DMSO unless otherwise indicated and diluted into the medium. Any unused compound stocks were stored at −20° C. Assays were performed in sterile 24-well (2 ml) plates (Falcon, UK).
Worms were then transferred individually to each well of the plate using fine forceps. Worm viability was assessed using 2 parameters: • The measurement of mean worm motility scores on a scale of 0 (immotile) to 10 (maximum) every 24 h, terminating at 120 h, using an Olympus inverted microscope. • The biochemical evaluation of worm viability using MTT/formazan colorimetry. The MTT assay was carried out after the last motility reading (120 h). Single intact worms were placed in each well of a 48-well plate (Falcon, UK) containing 0.5 ml of a solution consisting of 0.5 mg/ml MTT (Sigma UK) in phosphate buffered saline, and then incubated for 30 min at 37° C. The worms were removed, blotted carefully, and individually transferred to separate wells of a 96-well microtiter plate, each containing 200 μl of DMSO to solubilize the formazan. After 1 h the plate was gently agitated to disperse the color evenly and the absorbance value (optical density) of the resulting formazan solution was determined at 490 nm using a multi-well scanning spectrophotometer (Elisa-reader, Dynatech, UK). Inhibition of formazan formation was correlated with worm damage or death.
Primary screen. New compounds were usually tested at 1.25×10^−5 M. Also expressed in μg/ml.
Secondary screen. […] Serial 1 in 4 drug dilutions was carried out to find activity endpoint and EC50 values for motility reduction and inhibition of formazan formation were produced. EC50 values were determined using Excel or Origin V7 scientific graphing and data analysis software.
With `N#Cc1sc(Nc2cc(C(F)(F)F)ccn2)nc1-c1ccccn1` [Example 189, 4-(pyridin-2-yl)-2-(4-(trifluoromethyl)pyridin-2-ylamino) thiazole-5-carbonitrile], the IC50 was in the range of 500 to 5000 nM.

For `O=C(c1sc(Nc2cc(C(F)(F)F)ccn2)nc1-c1ccccn1)N1CCC2(CC1)OCCO2` [Example 190, (4-(pyridin-2-yl)-2-(4-(trifluoromethyl)pyridin-2-ylamino)thiazol-5-yl)(1,4-dioxa-8-azaspiro[4.5]decan-8-yl)methanone], the IC50 lay in the range of 500 to 5000 nM.

Regarding `CN1CCN(C(=O)c2sc(Nc3cc(C(F)(F)F)ccn3)nc2-c2ccccn2)CC1` [Example 191, (4-methylpiperazin-1-yl)(4-(pyridin-2-yl)-2-(4-(trifluoromethyl)pyridin-2-ylamino)thiazol-5-yl)methanone], the IC50 was in the range of 500 to 5000 nM.

For `O=C(c1sc(Nc2cc(C(F)(F)F)ccn2)nc1-c1ccccn1)N1CCN2CCCC2C1` (stereo not drawn) [Example 192, (hexahydro-pyrrolo [1,2-a]pyrazin-2(1H)-yl)(4-(pyridin-2-yl)-2-(4-(trifluoromethyl)pyridin-2-ylamino)thiazol-5-yl)methanone], the IC50 lay within 200 to 500 nM.

On to `OCc1sc(Nc2cc(F)ccn2)nc1-c1ccccn1` [Example 193, (2-(4-fluoropyridin-2-ylamino)-4-(pyridin-2-yl)thiazol-5-yl)methanol], for which the IC50 was less than 200 nM.

As to `CCc1sc(Nc2cccc(C(F)(F)F)n2)nc1-c1ccccn1` [Example 194, 5-ethyl-4-(pyridin-2-yl)-N-(6-(trifluoromethyl)pyridin-2-yl)thiazol-2-amine], the IC50 was in the range of 500 to 5000 nM.

As for `CN(C)Cc1sc(Nc2cc(C(F)(F)F)ccn2)nc1-c1ccccn1` [Example 195, 5-((dimethylamino)methyl)-4-(pyridin-2-yl) N-(4-(trifluoromethyl)pyridin-2-yl)thiazol-2-amine], the IC50 was in the range of 200 to 500 nM.

`C[C@@H]1CN(Cc2sc(Nc3cc(C(F)(F)F)ccn3)nc2-c2ccccn2)C[C@H](C)N1` [Example 196, 5-(((3R,5S)-3,5-dimethyl-piperazin-1-yl)methyl)-4-(pyridin-2-yl)-N-(4-(trifluoromethyl)pyridin-2-yl)thiazol-2-amine]: the IC50 was less than 200 nM.

For the molecule `FC(F)(F)c1ccnc(Nc2nc(-c3ccccn3)c(CN3CCCC3)s2)c1` [Example 197, 4-(pyridin-2-yl)-5-(pyrrolidin-1-ylmethyl)-N-(4-(trifluoromethyl)pyridin-2-yl)thiazol-2-amine], the IC50 was 500 to 5000 nM.

With `Cc1sc(Nc2cc(C(=O)NCC(F)(F)F)ccn2)nc1-c1ccccn1` [Example 198, 2-(5-methyl-4-(pyridin-2-yl)thiazol-2-ylamino)-N-(2,2,2-trifluoroethyl) isonicotinamide], the IC50 was less than 200 nM.

Regarding `O=C(c1sc(Nc2cc(C(F)(F)F)ccn2)nc1-c1ccccn1)N1CCOCC1` [Example 199, morpholino(4-(pyridin-2-yl)-2-(4-(trifluoromethyl)pyridin-2-ylamino)thiazol-5-yl)methanone], the IC50 was in the range of 500 to 5000 nM.

On to `O=C(c1sc(Nc2cc(C(F)(F)F)ccn2)nc1-c1ccccn1)N1CCCCC1` [Example 200, piperidin-1-yl(4-(pyridin-2-yl)-2-(4-(trifluoromethyl)pyridin-2-ylamino)thiazol-5-yl)methanone], for which the IC50 lay in the range of 500 to 5000 nM.

Regarding `C[C@@H]1CN(Cc2sc(Nc3cc(C(F)(F)F)ccn3)nc2-c2ccccn2)C[C@H](C)O1` [Example 201, 5-(((2R,6S)-2,6-dimethyl-morpholino)methyl)-4-(pyridin-2-yl)-N-(4-(trifluoromethyl)pyridin-2-yl)thiazol-2-amine], the IC50 is less than 200 nM.

For `O=C(NCC1CCOCC1)c1sc(Nc2cc(C(F)(F)F)ccn2)nc1-c1ccccn1` [Example 203, 4-(pyridin-2-yl)-N-((tetrahydro-2H-pyran-4-yl)methyl)-2-(4-(trifluoromethyl)pyridin-2-ylamino) thiazole-5-carboxamide], the IC50 was 500 to 5000 nM.

With `O=C(NC1CCCC1)c1sc(Nc2cc(C(F)(F)F)ccn2)nc1-c1ccccn1` [Example 204, N-cyclopentyl-4-(pyridin-2-yl)-2-(4-(trifluoromethyl)pyridin-2-ylamino) thiazole-5-carboxamide], the IC50 lay within 500 to 5000 nM.

In the case of `Cc1sc(Nc2cc(OC3CCOCC3)ccn2)nc1-c1ccccn1` [Example 205, 5-methyl-4-(pyridin-2-yl)-N-(4-(tetrahydro-2H-pyran-4-yloxy)pyridin-2-yl)thiazol-2-amine], the IC50 is less than 200 nM.

For `O=C(O)c1sc(Nc2cc(C(F)(F)F)ccn2)nc1-c1ccccn1` [Example 206, 4-(pyridin-2-yl)-2-(4-(trifluoromethyl)pyridin-2-ylamino) thiazole-5-carboxylic acid], the IC50 was less than 200 nM.

In the case of `O=C(c1sc(Nc2cc(C(F)(F)F)ccn2)nc1-c1ccccn1)N1CCCC1` [Example 207, (4-(pyridin-2-yl)-2-(4-(trifluoromethyl)pyridin-2-ylamino)thiazol-5-yl)(pyrrolidin-1-yl)methanone], the IC50 was less than 200 nM.

As for `CN(C)CCNC(=O)c1sc(Nc2cc(C(F)(F)F)ccn2)nc1-c1ccccn1` [Example 208, N-(2-(dimethylamino)ethyl)-4-(pyridin-2-yl)-2-(4-(trifluoro-methyl)pyridin-2-ylamino) thiazole-5-carboxamide], the IC50 is less than 200 nM.

As for `CN(C)C(=O)c1sc(Nc2cc(C(F)(F)F)ccn2)nc1-c1ccccn1` [Example 209, N,N-dimethyl-4-(pyridin-2-yl)-2-(4-(trifluoromethyl)pyridin-2-ylamino) thiazole-5-carboxamide], the IC50 is less than 200 nM.

As for `FC(F)(F)c1ccnc(Nc2nc(-c3ccccn3)c(CN3CCOCC3)s2)c1` [Example 210, 5-(morpholino-methyl)-4-(pyridin-2-yl)-N-(4-(trifluoromethyl)pyridin-2-yl) thiazol-2-amine], the IC50 was less than 200 nM.

As to `O=C(NCC(F)(F)F)c1ccnc(Nc2nc(-c3ccccn3)c(CO)s2)c1` [Example 211, 2-(5-(hydroxy-methyl)-4-(pyridin-2-yl)thiazol-2-ylamino)-N-(2,2,2-trifluoroethyl) isonicotinamide], the IC50 fell in the range of 200 to 500 nM.

Consider `CC(=O)N(C)c1cc(C(F)(F)F)cnc1Nc1nc(-c2ccccn2)cs1` [Example 212, N-methyl-N-(2-(4-(pyridin-2-yl)thiazol-2-ylamino)-5-(trifluoro-methyl)pyridin-3-yl) acetamide], for which the IC50 is less than 200 nM.

On to `c1ccc(-c2csc(Nc3ncccn3)n2)nc1` [Example 213, 4-(pyridin-2-yl)-N-(pyrimidin-2-yl)thiazol-2-amine], for which the IC50 was in the range of 500 to 5000 nM.

`c1ccc(Nc2nc(-c3ccccn3)cs2)nc1` [Example 214, N,4-di(pyridin-2-yl)thiazol-2-amine]: the IC50 lay in the range of 200 to 500 nM.

Turning to `Cc1cccnc1Nc1nc(-c2ccccn2)cs1` [Example 215, N-(3-methylpyridin-2-yl)-4-(pyridin-2-yl)thiazol-2-amine], the IC50 is less than 200 nM.

`FC(F)(F)c1ccc(Nc2nc(-c3ccccn3)cs2)nc1` [Example 217, 4-(pyridin-2-yl)-N-(5-(trifluoromethyl)pyridin-2-yl)thiazol-2-amine]: the IC50 was in the range of 500 to 5000 nM.

With `COc1ccc(Nc2nc(-c3ccccn3)cs2)nc1` [Example 218, N-(5-methoxypyridin-2-yl)-4-(pyridin-2-yl)thiazol-2-amine], the IC50 lay in the range of 200 to 500 nM.

In the case of `CC(C)c1ccc(Nc2nc(-c3ccccn3)cs2)nc1` [Example 219, N-(5-isopropylpyridin-2-yl)-4-(pyridin-2-yl)thiazol-2-amine], the IC50 was less than 200 nM.

As for `Cc1ccnc(Nc2nc(-c3cc(C)ccn3)cs2)c1` [Example 220, N,4-bis(4-methylpyridin-2-yl)thiazol-2-amine], the IC50 is less than 200 nM.

Consider `c1ccc(-c2ccc(Nc3nc(-c4ccccn4)cs3)nc2)cc1` [Example 221, N-(5-phenylpyridin-2-yl)-4-(pyridin-2-yl)thiazol-2-amine], for which the IC50 was less than 200 nM.

Take `Cc1ccnc(-c2csc(Nc3ncccc3C)n2)c1` [Example 222, N-(3-methylpyridin-2-yl)-4-(4-methylpyridin-2-yl)thiazol-2-amine]: the IC50 fell in the range of 500 to 5000 nM.

Consider `Cc1ccnc(Nc2nc(-c3cc(Cl)ccn3)cs2)c1` [Example 223, 4-(4-chloropyridin-2-yl)-N-(4-methylpyridin-2-yl)thiazol-2-amine], for which the IC50 is less than 200 nM.

Consider `CCOc1ccnc(-c2csc(Nc3cc(C)ccn3)n2)c1` [Example 224, 4-(4-ethoxypyridin-2-yl)-N-(4-methylpyridin-2-yl)thiazol-2-amine], for which the IC50 was 200 to 500 nM.

Consider `COc1ccc(-c2csc(Nc3cc(C)ccn3)n2)nc1` [Example 225, 4-(5-methoxypyridin-2-yl)-N-(4-methylpyridin-2-yl)thiazol-2-amine], for which the IC50 was less than 200 nM.

Turning to `Cc1sc(Nc2ccccn2)nc1-c1ccccn1` [Example 227, 5-methyl-N,4-di(pyridin-2-yl)thiazol-2-amine], the IC50 is less than 200 nM.

For `COc1ccc(-c2cnc(Nc3cc(OC(C)C)ccn3)o2)nc1` [Example 228, N-(4-isopropoxy-pyridin-2-yl)-5-(5-methoxypyridin-2-yl)oxazol-2-amine], the IC50 is 500 to 5000 nM.

As for `c1ccc(-c2ccnc(Nc3ncc(-c4ccccn4)o3)c2)cc1` [Example 229, N-(4-phenylpyridin-2-yl)-5-(pyridin-2-yl)oxazol-2-amine], the IC50 is 500 to 5000 nM.

For `Cc1ccnc(Nc2ncc(-c3ncccc3C)o2)c1` [Example 230, 5-(3-methylpyridin-2-yl)-N-(4-methylpyridin-2-yl)oxazol-2-amine], the IC50 lay within 500 to 5000 nM.

As to `CC(C)Oc1ccc(-c2cnc(Nc3ncccc3N(C)C)o2)nc1` [Example 231, N2-(5-(5-isopropoxy-pyridin-2-yl)oxazol-2-yl)-N3,N3-dimethyl-pyridine-2,3-diamine], the IC50 is 500 to 5000 nM.

`c1ccc(Nc2nc(-c3ccccn3)co2)nc1` [Example 232, N,4-di (pyridin-2-yl)oxazol-2-amine]: the IC50 is less than 200 nM.

On to `COc1ccc(-c2cc(Nc3cc(OC(C)C)ccn3)n(C)n2)nc1` [Example 233, 4-isopropoxy-N-(3-(5-methoxypyridin-2-yl)-1-methyl-1H-pyrazol-5-yl)pyridin-2-amine], for which the IC50 lay in the range of 500 to 5000 nM.
